Assay results as given in patent US20020137929A1, “1 - (3-heterocyclylphenyl) isothiourea, -isourea, -guanidine and -amidine herbicidal agents” (Intellectual Property Department, BASF Aktiengesellschaft, priority 1998, published 2002).

What was measured:
[1] = tested on: SETVI (Foxtail, Green); experiment: Preemergence herbicidal evaluation; assay type: in vivo, Setaria viridis; settings: rated 4-5 weeks after treatment
Outline: (§1)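 Herbicidal effect scored visually, 0-9, at 4 to 5 weeks against a control; compound applied preemergence by aqueous acetone spray to seeded soil at about 0.0156 to 0.500 kg/ha.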

[2] = tested on: AMBEL (Ragweed, Common); experiment: Preemergence herbicidal evaluation; assay type: in vivo, Ambrosia artemisifolia; settings: rated 4-5 weeks after treatment
Outline: as §1

[3] = tested on: SETVI (Foxtail, Green); experiment: Postemergence herbicidal evaluation; assay type: in vivo, Setaria viridis; settings: postemergence
Outline: (§2)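 Visual 0–9 rating versus control (stand, vigor, malformation, size, chlorosis, overall appearance), taken four to five weeks post-spray. Two-week-old seedlings received roughly 0.0156–0.500 kg/ha active in acetone/water (50/50) with 0.5% TWEEN 20 via nozzle at 40 psi.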

[4] = tested on: ORYSAT (Rice, Tebonnet); experiment: Postemergence herbicidal evaluation; assay type: in vivo, Oryza sativa, (L.) Tebonnet; settings: postemergence
Outline: as §2

[5] = tested on: CYPIR (Rice Flatsedge); experiment: Preemergence weed control under flooded paddy conditions; assay type: in vivo, Cyperus iria; settings: rated 3-4 weeks after treatment
Outline: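 Visual injury scored 0-9 against control three to four weeks post-treatment, greenhouse-grown. Application: acetone/water (50/50) solutions dosed directly into flood water (1.5-3 cm over silt loam, planted top 0.5 cm), roughly 0.0313 to 0.500 kg/ha active ingredient.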

[6] = tested on: GLXMAW (Soybean, Williams); experiment: Postemergence herbicidal evaluation; assay type: in vivo, Glycine max, (L.) Merr. cv Williams; settings: postemergence
Outline: as §2

[7] = tested on: GALAP (Galium); experiment: Preemergence herbicidal evaluation; assay type: in vivo, Galium aparine; settings: rated 4-5 weeks after treatment
Outline: as §1

[8] = tested on: TRZAWR (Wheat, Winter, cv Riband); experiment: Postemergence herbicidal evaluation; assay type: in vivo, Triticum aestivum; settings: postemergence
Outline: as §2

[9] = tested on: CHEAL (Lambsquarters, Common); experiment: Postemergence herbicidal evaluation; assay type: in vivo, Chenopodium album; settings: postemergence
Outline: as §2

[10] = tested on: ABUTH (Velvetleaf); experiment: Postemergence herbicidal evaluation; assay type: in vivo, Abutilon theophrasti; settings: postemergence
Outline: as §2

[11] = tested on: ZEAMX (Corn, Field); experiment: Postemergence herbicidal evaluation; assay type: in vivo, Zea mays; settings: postemergence
Outline: as §2

Cn1c(C(F)(F)F)cc(=O)n(-c2cc(N=C3SCC(=O)N3C3CCC3)c(Cl)cc2F)c1=O [Compound 168, 3-{4-Chloro-5-[(3-cyclobutyl-4-oxo-2-thiazolidinylidene)amino]-2-fluorophenyl}-1-methyl-6-(trifluoromethyl)-2,4(1H,3H)-pyrimidinedione]
Preemergence herbicidal rating SETVI ([1]; 0.0156 kg/ha): 0.0 | Preemergence herbicidal rating SETVI ([1]; 0.0313 kg/ha): 0.0 | Preemergence herbicidal rating SETVI ([1]; 0.0625 kg/ha): 0.0 | Preemergence herbicidal rating SETVI ([1]; 0.1250 kg/ha): 0.0 | Preemergence herbicidal rating SETVI ([1]; 0.2500 kg/ha): 5.0 | Preemergence herbicidal rating AMBEL ([2]; 0.0156 kg/ha): 0.0 | Preemergence herbicidal rating AMBEL ([2]; 0.0313 kg/ha): 0.0 | Preemergence herbicidal rating AMBEL ([2]; 0.0625 kg/ha): 0.0 | Preemergence herbicidal rating AMBEL ([2]; 0.1250 kg/ha): 0.0 | Preemergence herbicidal rating AMBEL ([2]; 0.2500 kg/ha): 5.0 | Herbicidal rating SETVI ([3]; rate 0.0156 kg/ha): 0.0 | Herbicidal rating SETVI ([3]; rate 0.0313 kg/ha): 0.0 | Herbicidal rating SETVI ([3]; rate 0.0625 kg/ha): 3.0 | Herbicidal rating ORYSAT ([4]; rate 0.0156 kg/ha): 1.0 | Herbicidal rating ORYSAT ([4]; rate 0.0313 kg/ha): 1.5 | Herbicidal rating ORYSAT ([4]; rate 0.0625 kg/ha): 2.5 | herbicidal effect rating, CYPIR ([5]; 0.0313 kg/ha): 0.0 | herbicidal effect rating, CYPIR ([5]; 0.0625 kg/ha): 0.0 | herbicidal effect rating, CYPIR ([5]; 0.1250 kg/ha): 0.0 | herbicidal effect rating, CYPIR ([5]; 0.2500 kg/ha): 0.0 | Herbicidal rating GLXMAW ([6]; rate 0.0156 kg/ha): 5.5 | Herbicidal rating GLXMAW ([6]; rate 0.0313 kg/ha): 6.5 | Herbicidal rating GLXMAW ([6]; rate 0.0625 kg/ha): 7.0 | Preemergence herbicidal rating GALAP ([7]; 0.0156 kg/ha): 0.0 | Preemergence herbicidal rating GALAP ([7]; 0.0313 kg/ha): 0.0 | Preemergence herbicidal rating GALAP ([7]; 0.0625 kg/ha): 0.0 | Preemergence herbicidal rating GALAP ([7]; 0.1250 kg/ha): 0.0 | Preemergence herbicidal rating GALAP ([7]; 0.2500 kg/ha): 3.0 | Herbicidal rating TRZAWR ([8]; rate 0.0156 kg/ha): 3.5 | Herbicidal rating TRZAWR ([8]; rate 0.0313 kg/ha): 3.5 | Herbicidal rating TRZAWR ([8]; rate 0.0625 kg/ha): 4.0 | Herbicidal rating CHEAL ([9]; rate 0.0156 kg/ha): 2.0 | Herbicidal rating CHEAL ([9]; rate 0.0313 kg/ha): 3.0 | Herbicidal rating CHEAL ([9]; rate 0.0625 kg/ha): 4.0 | Herbicidal rating ABUTH ([10]; rate 0.0156 kg/ha): 9.0 | Herbicidal rating ABUTH ([10]; rate 0.0313 kg/ha): 9.0 | Herbicidal rating ABUTH ([10]; rate 0.0625 kg/ha): 9.0 | Herbicidal rating ZEAMX ([11]; rate 0.0156 kg/ha): 4.5 | Herbicidal rating ZEAMX ([11]; rate 0.0313 kg/ha): 4.5 | Herbicidal rating ZEAMX ([11]; rate 0.0625 kg/ha): 7.0

Cn1c(C(F)(F)F)cc(=O)n(-c2cc(N=C3SCC(=O)N3C3CCCC3)c(Cl)cc2F)c1=O [Compound 166, 3-{4-Chloro-5-[(3-cyclopentyl-4-oxo-2-thiazolidinylidene)amino]-2-fluorophenyl}-1-methyl-6-(trifluoromethyl)-2,4(1H,3H)-pyrimidinedione]
Preemergence herbicidal rating SETVI ([1]; 0.0156 kg/ha): 0.0 | Preemergence herbicidal rating SETVI ([1]; 0.0313 kg/ha): 0.0 | Preemergence herbicidal rating SETVI ([1]; 0.0625 kg/ha): 1.0 | Preemergence herbicidal rating SETVI ([1]; 0.1250 kg/ha): 6.0 | Preemergence herbicidal rating SETVI ([1]; 0.2500 kg/ha): 6.0 | Preemergence herbicidal rating SETVI ([1]; 0.5000 kg/ha): 9.0 | Preemergence herbicidal rating AMBEL ([2]; 0.0156 kg/ha): 1.0 | Preemergence herbicidal rating AMBEL ([2]; 0.0313 kg/ha): 0.0 | Preemergence herbicidal rating AMBEL ([2]; 0.0625 kg/ha): 3.0 | Preemergence herbicidal rating AMBEL ([2]; 0.1250 kg/ha): 6.0 | Preemergence herbicidal rating AMBEL ([2]; 0.2500 kg/ha): 7.0 | Preemergence herbicidal rating AMBEL ([2]; 0.5000 kg/ha): 7.0 | Herbicidal rating SETVI ([3]; rate 0.0156 kg/ha): 0.0 | Herbicidal rating SETVI ([3]; rate 0.0313 kg/ha): 0.0 | Herbicidal rating SETVI ([3]; rate 0.0625 kg/ha): 1.0 | Herbicidal rating SETVI ([3]; rate 0.1250 kg/ha): 2.0 | Herbicidal rating ORYSAT ([4]; rate 0.0156 kg/ha): 1.0 | Herbicidal rating ORYSAT ([4]; rate 0.0313 kg/ha): 0.5 | Herbicidal rating ORYSAT ([4]; rate 0.0625 kg/ha): 1.5 | Herbicidal rating ORYSAT ([4]; rate 0.1250 kg/ha): 2.0 | herbicidal effect rating, CYPIR ([5]; 0.0313 kg/ha): 2.0 | herbicidal effect rating, CYPIR ([5]; 0.0625 kg/ha): 2.0 | herbicidal effect rating, CYPIR ([5]; 0.1250 kg/ha): 6.0 | herbicidal effect rating, CYPIR ([5]; 0.2500 kg/ha): 9.0 | Herbicidal rating GLXMAW ([6]; rate 0.0156 kg/ha): 4.0 | Herbicidal rating GLXMAW ([6]; rate 0.0313 kg/ha): 3.5 | Herbicidal rating GLXMAW ([6]; rate 0.0625 kg/ha): 4.0 | Herbicidal rating GLXMAW ([6]; rate 0.1250 kg/ha): 5.0 | Preemergence herbicidal rating GALAP ([7]; 0.0156 kg/ha): 0.0 | Preemergence herbicidal rating GALAP ([7]; 0.0313 kg/ha): 0.0 | Preemergence herbicidal rating GALAP ([7]; 0.0625 kg/ha): 2.0 | Preemergence herbicidal rating GALAP ([7]; 0.1250 kg/ha): 5.0 | Preemergence herbicidal rating GALAP ([7]; 0.2500 kg/ha): 7.0 | Preemergence herbicidal rating GALAP ([7]; 0.5000 kg/ha): 8.0 | Herbicidal rating TRZAWR ([8]; rate 0.0156 kg/ha): 1.5 | Herbicidal rating TRZAWR ([8]; rate 0.0313 kg/ha): 1.5 | Herbicidal rating TRZAWR ([8]; rate 0.0625 kg/ha): 2.5 | Herbicidal rating TRZAWR ([8]; rate 0.1250 kg/ha): 3.0 | Herbicidal rating CHEAL ([9]; rate 0.0156 kg/ha): 0.0 | Herbicidal rating CHEAL ([9]; rate 0.0313 kg/ha): 1.0 | Herbicidal rating CHEAL ([9]; rate 0.0625 kg/ha): 4.0 | Herbicidal rating CHEAL ([9]; rate 0.1250 kg/ha): 7.0 | Herbicidal rating ABUTH ([10]; rate 0.0156 kg/ha): 2.0 | Herbicidal rating ABUTH ([10]; rate 0.0313 kg/ha): 1.0 | Herbicidal rating ABUTH ([10]; rate 0.0625 kg/ha): 3.0 | Herbicidal rating ABUTH ([10]; rate 0.1250 kg/ha): 9.0 | Herbicidal rating ZEAMX ([11]; rate 0.0156 kg/ha): 3.0 | Herbicidal rating ZEAMX ([11]; rate 0.0313 kg/ha): 3.0 | Herbicidal rating ZEAMX ([11]; rate 0.0625 kg/ha): 3.5 | Herbicidal rating ZEAMX ([11]; rate 0.1250 kg/ha): 4.5
